Measurements published in ChEMBL document CHEMBL2203092, “Clerodane diterpenoids from Croton crassifolius” (J Nat Prod, 2012).
In brackets after ≈: the same amount, converted by molar mass.

Each compound was assayed on Human alphaherpesvirus 1 (assay: Antiviral activity against HSV1 F ATCC VR733 infected in african green monkey Vero cells assessed as reduction of virus-induced cytopathic effect after 3 days). Details: Human alphaherpesvirus 1, Strain F ATCC VR 733, Vero, 72 h.
Format: functional, organism-based

| Compound | IC50 |
| --- | --- |
| COC(=O)[C@@]1(C)CC(=O)C=C2C1=CC[C@@H](C)[C@]2(C)CC(=O)c1ccoc1 [CRASSIFOLIN C] | 50 µg/mL (≈ 140 µM) |
| COC(=O)[C@@]1(C)C2=C(CC[C@H]1OC(C)=O)[C@@]1(C[C@@H](c3ccoc3)OC1=O)[C@H](C)CC2 [CRASSIFOLIN F] | 50 µg/mL (≈ 120 µM) |
| C[C@@H]1CC(=O)[C@@H]2[C@@H](C(=O)O)CCC[C@H]2[C@@]12C[C@@H](c1ccoc1)OC2=O | 25 µg/mL (≈ 72.2 µM) |
| Nc1nc2c(ncn2COCCO)c(=O)[nH]1 [ACYCLOVIR] | 0.2 µg/mL (≈ 0.888 µM) |
| COC(=O)[C@]12CCCC3=C1[C@@H](C[C@H](C)[C@@]31C[C@H](c3ccoc3)OC1=O)OC2 [CRASSIFOLIN D] | 50 µg/mL (≈ 134 µM) |
| COC(=O)[C@]1(C)CCCC2=C1CC[C@@H](C)[C@]21C[C@@H](c2ccoc2)OC1=O [PENDULIFLAWOROSIN] | 50 µg/mL (≈ 139 µM) |
